Measurements as given in patent US7655670B2 (Janssen Pharmaceutica N.V., priority 2005, dated 2010).
Read-outs that look alike come from different tables or passages of the source.

Columns and labels:
ORL-1 receptor = molecular target: T1, ORL-1 receptor (Homo sapiens, UniProt P41146); test: ORL-1 functional assay (calcium flux, FLIPR); assay type: cell-based; design: key to Inhibitor: a notation of “no” indicates that the compound did not act as an inhibitor; a notation of “yes” indicates that the compound acted as an inhibitor; a notation of “undetermined” indicates that the data did not clearly show whether or not the compound acted as an antagonist; conditions: for Inhibitor: HEK-293 cells over-expressing ORL-1 receptor and Gqi5 G protein, calcium flux; for % Inhibition (100 nM Nociceptin): inhibition of calcium signal from 100 nM nociceptin, HEK-293 cells with ORL-1 and Gqi5
T1 construct: expressed in transfected cells; host or cells: HEK-293 over-expressing ORL-1 and Gqi5
T1 sequence (P41146 whole entry): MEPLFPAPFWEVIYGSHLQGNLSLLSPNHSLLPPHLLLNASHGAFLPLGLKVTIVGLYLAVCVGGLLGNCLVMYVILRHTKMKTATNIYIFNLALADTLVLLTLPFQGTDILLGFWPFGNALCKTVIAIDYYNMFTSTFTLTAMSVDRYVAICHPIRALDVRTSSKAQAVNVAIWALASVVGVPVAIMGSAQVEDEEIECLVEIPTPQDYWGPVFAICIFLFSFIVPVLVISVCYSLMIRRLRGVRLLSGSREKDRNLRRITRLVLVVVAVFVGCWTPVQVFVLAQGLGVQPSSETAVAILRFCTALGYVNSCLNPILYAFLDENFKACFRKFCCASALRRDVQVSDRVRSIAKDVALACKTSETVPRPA
Procedure: To assay the function of a test compound, a HEK-293 cell line that over-expresses the ORL-1 receptor and the Gqi5 G protein (Molecular Devices) were employed. By using a calcium flux assay, agonism and antagonism through the ORL-1 receptor were detectable.
The HEK-293 cells were plated two days prior to assay. For assay, cells in 50 μl of medium were incubated with 50 μl of dye (Molecular Devices) for 1 hour at 37° C. 100 μl of test compound diluted in Hank's Buffered Salt Solution (HBSS) at 2-fold the indicated final concentration was added and time points taken every 1 second for 1 minute and every 3 seconds for an additional 1 minute using FLIPR384 (Molecular Devices). 50 μl of nociceptin (Neosystems, SA) at 5-fold the indicated final concentration was then added and additional time points were recorded every 1 second for 1 minute and every 3 seconds for an additional 1 minute.
The resulting data were processed using Microsoft Excel 6.0 and EC50 values were determined using GraphPad Prism 3.0. For agonists, the EC50 was determined from the initial calcium signal obtained after addition of the test compound. For compounds that behaved as antagonists, the percent inhibition or IC50 of the signal resulting from the subsequent addition of the nociceptin peptide was calculated.

[1] = molecular target: human nociceptin receptor (ORL-1) (Homo sapiens, UniProt P41146); test: nociceptin receptor (ORL-1) binding assay, 125I-Tyr14-nociceptin displacement
human nociceptin receptor (ORL-1), sequence (P41146 whole entry): as above

[2] = molecular target: Delta (δ) opioid receptor (Homo sapiens, UniProt P41143); test: Filtration binding assay, delta opioid receptor (DPDPE-H3 ligand)
Delta (δ) opioid receptor, sequence (P41143 whole entry): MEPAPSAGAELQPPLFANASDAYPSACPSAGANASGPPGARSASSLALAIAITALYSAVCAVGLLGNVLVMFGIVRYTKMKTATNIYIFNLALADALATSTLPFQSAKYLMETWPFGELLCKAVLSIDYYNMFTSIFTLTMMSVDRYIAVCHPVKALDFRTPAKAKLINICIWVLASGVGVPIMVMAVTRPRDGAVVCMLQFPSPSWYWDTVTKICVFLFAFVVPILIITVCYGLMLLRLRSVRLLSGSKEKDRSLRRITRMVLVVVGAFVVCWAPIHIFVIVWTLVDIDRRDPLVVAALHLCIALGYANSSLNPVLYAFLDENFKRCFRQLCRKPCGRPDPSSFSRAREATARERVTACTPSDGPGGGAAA

Mu (μ) opioid receptor = Mu (μ) opioid receptor (Homo sapiens, UniProt P35372); test: Filtration binding assay, mu opioid receptor (Damgo-H3 ligand)
Mu (μ) opioid receptor, sequence (P35372 whole entry): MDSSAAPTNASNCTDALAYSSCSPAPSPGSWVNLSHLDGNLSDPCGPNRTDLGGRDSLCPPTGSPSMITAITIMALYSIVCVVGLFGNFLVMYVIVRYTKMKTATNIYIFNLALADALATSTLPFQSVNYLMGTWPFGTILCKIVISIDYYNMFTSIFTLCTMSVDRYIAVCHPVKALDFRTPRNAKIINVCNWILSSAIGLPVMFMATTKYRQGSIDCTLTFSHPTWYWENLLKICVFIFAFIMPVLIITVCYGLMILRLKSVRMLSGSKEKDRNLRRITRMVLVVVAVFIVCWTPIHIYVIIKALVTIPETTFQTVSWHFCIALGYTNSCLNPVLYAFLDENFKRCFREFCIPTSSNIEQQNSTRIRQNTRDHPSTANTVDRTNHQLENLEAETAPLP

[3] = molecular target: Kappa (κ) opioid receptor (Homo sapiens, UniProt P41145); test: Filtration binding assay, kappa opioid receptor (U69593-H3 ligand)
Kappa (κ) opioid receptor, sequence (P41145 whole entry): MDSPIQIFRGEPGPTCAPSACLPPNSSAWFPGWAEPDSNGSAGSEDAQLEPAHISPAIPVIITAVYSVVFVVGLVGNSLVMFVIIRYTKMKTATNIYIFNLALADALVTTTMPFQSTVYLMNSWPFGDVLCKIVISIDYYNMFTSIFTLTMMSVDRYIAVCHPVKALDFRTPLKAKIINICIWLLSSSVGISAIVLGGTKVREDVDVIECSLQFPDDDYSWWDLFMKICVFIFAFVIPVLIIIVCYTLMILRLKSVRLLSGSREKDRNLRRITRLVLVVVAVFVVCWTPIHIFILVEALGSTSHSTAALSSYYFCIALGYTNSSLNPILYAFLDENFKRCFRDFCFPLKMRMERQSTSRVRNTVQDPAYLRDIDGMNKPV

[4] = 2D4 cell line membrane, DPDPE-H3 ligand, calculated mean where tested more than once, read-out: Delta (δ) IC50
[5] = 1 D4 cell line membrane, Damgo-H3 ligand, calculated mean where tested more than once, read-out: Mu (μ) IC50
[6] = 2C2 cell line membrane, U69593-H3 ligand, calculated mean where tested more than once, read-out: Kappa (κ) IC50

Row | Compound | IC50 [1] | IC50 (Mu (μ) opioid receptor; [5]) | IC50 [3, 6] | other results
1 | COC(=O)CN1C(=O)C2(CCN(CC3CCCCCC3)CC2)c2ccccc21 [Compound 1] | 510 nM |  |  | Inhibitor (ORL-1 receptor): no
2 | O=C1N(CC2CCCCC2)c2ccccc2C12CCN(C1Cc3cccc4cccc1c34)CC2 (stereo not shown) [Compound 4] |  | > 10000 nM |  | IC50 [2, 4]: > 10 µM
3 | COc1ccc2c(c1)N(CC1CC1)C(=O)C21CCN(CC2CCCCCCC2)CC1 [Compound 5, 1-(cyclopropyl-methyl)-5-(cyclooctyl-methyl)-10-methoxy-spiro[indoline-3,4′-piperidin]-2-one] |  |  |  | IC50 (Mu (μ) opioid receptor): > 10000 nM
4 | CC(C)c1ccc2c(c1)C1(CCN(CC3CCCCCCC3)CC1)C(=O)N2C [Compound 7, 1-methyl-5-(cyclooctyl-methyl)-9-isopropyl-spiro[indoline-3,4′-piperidin]-2-one] | 7400 nM |  |  | IC50 ([3]; read-out: Kappa (κ) IC50): 97 nM; IC50 (Mu (μ) opioid receptor; read-out: Mu (μ) IC50): 980 nM
5 | CN1C(=O)C2(CCN(CC3CCCCCCC3)CC2)c2cc(C(F)(F)F)ccc21 [Compound 8, 1-methyl-5-(cyclooctyl-methyl)-9-trifluoromethyl-spiro[indoline-3,4′-piperidin]-2-one] | 600 nM | 5310 nM |  | IC50 [2]: > 10 µM
6 | CN1C(=O)C2(CCN(CC3CCCCCCC3)CC2)c2cc(F)ccc21 [Compound 9, 1-methyl-5-(cyclooctyl-methyl)-9-fluoro-spiro[indoline-3,4′-piperidin]-2-one] | 23 nM | 1010 nM | 250 nM | Inhibitor (ORL-1 receptor): undetermined; % Inhibition (100 nM Nociceptin) (ORL-1 receptor): 41 ± 26%; IC50 [2]: > 10 µM
7 | COC(=O)CN1C(=O)C2(CCN(Cc3ccc(C(F)(F)F)cc3)CC2)c2ccccc21 [Compound 11] | 880 nM |  |  | 
8 | COC(=O)CN1C(=O)C2(CCN(Cc3cccc(C(F)(F)F)c3)CC2)c2ccccc21 [Compound 12] | 140 nM |  |  | 
9 | CN1C(=O)C2(CCN(C(=O)OC(C)(C)C)CC2)c2cc(C(F)(F)F)ccc21 [Compound 14, 1-methyl-5-tert-butoxycarbonyl-9-trifluoromethyl-spiro[indoline-3,4′-piperidin]-2-one] | > 10000 nM |  |  | 
10 | COC(=O)CN1C(=O)C2(CCN(C3CCC4CCCCC4C3)CC2)c2ccccc21 (stereo not shown) [Compound 15] | 900 nM |  |  | 
11 | CC(=O)N[C@@H](CSCC(O)CN1C(=O)C2(CCN(CC3CCCCCCC3)CC2)c2ccccc21)C(=O)O (stereo partly shown) [Compound 16] |  | 360 nM | 360 nM | IC50 [2, 4]: > 10 µM
12 | CCCN1C(=O)C2(CCN(CC3CCCCCCC3)CC2)c2cc(C(C)C)ccc21 [Compound 17] |  | > 10000 nM | 4000 nM | IC50 [2, 4]: 5.7 µM
13 | O=C1Nc2ccccc2C12CCN(CC1CCCCCCC1)CC2 [Compound 18] | 380 nM | 1110 nM | 430 nM | Inhibitor (ORL-1 receptor): yes; % Inhibition (100 nM Nociceptin) (ORL-1 receptor): 45 ± 9%
14 | CN1C(=O)C2(CCN(CC3CCCCCCC3)CC2)c2ccc(O)cc21 [Compound 19] | 2680 nM | > 10000 nM | 120 nM | IC50 [2, 4]: 0.3 µM
15 | O=C1N(CCO)c2ccccc2C12CCN(CC1CCCCCCC1)CC2 [Compound 20] | 290 nM | 1690 nM |  | 
16 | COC(=O)CN1C(=O)C2(CCN(CC3CC3)CC2)c2ccccc21 [Compound 23] | 3600 nM |  |  | 
17 | COC(=O)CN1C(=O)C2(CCN(CC3CCCCC3)CC2)c2ccccc21 [Compound 24] | 800 nM |  |  | Inhibitor (ORL-1 receptor): yes; % Inhibition (100 nM Nociceptin) (ORL-1 receptor): 32 ± 2%
18 | CCCCCCN1CCC2(CC1)C(=O)N(CC(=O)OC)c1ccccc12 [Compound 26] | 820 nM |  |  | 
19 | COC(=O)CN1C(=O)C2(CCN(CC3CCCCCCCCCCC3)CC2)c2ccccc21 [Compound 27] | 1120 nM |  |  | 

Row | Compound | IC50 [1] | IC50 (Mu (μ) opioid receptor; [5]) | IC50 [3, 6] | other results
20 | COC(=O)CN1C(=O)C2(CCN(CC3CCC(C(C)(C)C)CC3)CC2)c2ccccc21 (stereo not shown) [Compound 29] | 100 nM |  |  | 
21 | COC(=O)CN1C(=O)C2(CCN(C3Cc4cccc5cccc3c45)CC2)c2ccccc21 (stereo not shown) [Compound 30] |  | > 10000 nM | 4410 nM | IC50 [2, 4]: > 10 µM
22 | COC(=O)CN1C(=O)C2(CCN(Cc3ccc4ccccc4c3)CC2)c2ccccc21 [Compound 32] | 250 nM |  |  | 
23 | COc1ccc2c(c1)N(C)C(=O)C21CCN(CC2CCCCCCC2)CC1 [Compound 35, 1-methyl-5-(cyclooctyl-methyl)-10-methoxy-spiro[indoline-3,4′-piperidin]-2-one] | 2400 nM | 1610 nM | 1220 nM | 
24 | COC(=O)CN1C(=O)C2(CCN(Cc3ccc(Cl)cc3)CC2)c2ccccc21 [Compound 39] | 710 nM |  |  | 
25 | O=C(O)CN1C(=O)C2(CCN(CC3CCCCCCC3)CC2)c2ccccc21 [Compound 41] |  |  |  | IC50 [2]: > 10 µM; IC50 [3]: > 10000 nM; IC50 (Mu (μ) opioid receptor): > 10000 nM
26 | COC(=O)CN1C(=O)C2(CCN(CC3CCCCCCC3)CC2)c2ccccc21 [Compound 42] | 100 nM | 3550 nM | 640 nM | 
27 | COC(=O)CN1C(=O)C2(CCN(Cc3cccc4ccccc34)CC2)c2ccccc21 [Compound 43] | 470 nM |  |  | 
28 | O=C1N(Cc2ccccc2)c2ccccc2C12CCN(CC1CCCCCCC1)CC2 [Compound 44] | 120 nM | 960 nM | 1100 nM | 
29 | CN1C(=O)C2(CCN(CC3CCCCCCC3)CC2)c2ccccc21 [Compound 45] | 32 nM | 1300 nM | 930 nM | Inhibitor (ORL-1 receptor): no
30 | CC(=O)OCCN1C(=O)C2(CCN(CC3CCCCCCC3)CC2)c2ccccc21 [Compound 46] | 180 nM | 1410 nM | 2640 nM | Inhibitor (ORL-1 receptor): no
31 | CCN1C(=O)C2(CCN(CC3CCCCCCC3)CC2)c2ccc(OC)cc21 [Compound 55, 1-ethyl-5-(cyclooctyl-methyl)-10-methoxy-spiro[indoline-3,4′-piperidin]-2-one] | 2750 nM | 1460 nM |  | 
32 | Cc1ccc2c(c1)C1(CCN(CC3CCCCCCC3)CC1)C(=O)N2C [Compound 57, 1-methyl-5-(cyclooctyl-methyl)-9-methyl-spiro[indoline-3,4′-piperidin]-2-one] | 450 nM | 4280 nM | 540 nM | Inhibitor (ORL-1 receptor): no; IC50 [2, 4]: > 10 µM
33 | Cc1ccc2c(c1)N(C)C(=O)C21CCN(CC2CCCCCCC2)CC1 [Compound 58, 1-methyl-5-(cyclooctyl-methyl)-10-methyl-spiro[indoline-3,4′-piperidin]-2-one] | 150 nM | 6470 nM | 2380 nM | Inhibitor (ORL-1 receptor): undetermined; % Inhibition (100 nM Nociceptin) (ORL-1 receptor): 48 ± 26%; IC50 [2, 4]: 8.8 µM
34 | Cc1cccc2c1C1(CCN(CC3CCCCCCC3)CC1)C(=O)N2C [Compound 59, 1-methyl-5-(cyclooctyl-methyl)-8-methyl-spiro[indoline-3,4′-piperidin]-2-one] | 37 nM | 480 nM | 560 nM | Inhibitor (ORL-1 receptor): yes; % Inhibition (100 nM Nociceptin) (ORL-1 receptor): 81 ± 6%
35 | O=C1N(CC2CO2)c2ccccc2C12CCN(CC1CCCCCCC1)CC2 (stereo not shown) [Compound 60] | 83 nM | 840 nM | 480 nM | Inhibitor (ORL-1 receptor): no; % Inhibition (100 nM Nociceptin) (ORL-1 receptor): 17 ± 3%
36 | O=C1N(CC(O)CNCCN2CCOCC2)c2ccccc2C12CCN(CC1CCCCCCC1)CC2 (stereo not shown) [Compound 61] | 120 nM |  |  | IC50 ([3]; read-out: Kappa (κ) IC50): 100 nM; IC50 (Mu (μ) opioid receptor; read-out: Mu (μ) IC50): 500 nM
37 | CCN(Cc1ccc(C)cc1)CC(O)CN1C(=O)C2(CCN(CC3CCCCCCC3)CC2)c2ccccc21 (stereo not shown) [Compound 62] | 320 nM | 620 nM | 220 nM | 
38 | CCN1CC2(CCN(CC3CCCCCCC3)CC2)c2ccc(OC)cc21 [Compound 63] |  | > 10000 nM | > 10000 nM | IC50 [2, 4]: > 10 µM
